Test results reported in patent US5693844A, “2-cyano-3-hydroxy-propenamides” (Roussel UCLAF, priority 1995, dated 1997).
Like-named read-outs stand apart in the source and are kept apart here.

Target: T1, human DHO-DH (Homo sapiens, UniProt Q02127)
T1 construct: The spleen tissue was chopped and then homogenized with a teflon glass homogenizer; from tissue; host or cells: human spleen, crude membrane preparation
Experiment: Dihydroorotate Dehydrogenase (DHO-DH) Assay: DCIP-linked inhibition of human spleen membrane DHO-DH
Format: biochemical
Conditions: human spleen membranes, 90 min preincubation at 37° C., pH 8.0, 500 μM dihydroorotate, 100 μM coenzyme Q10, 200 μM DCIP, loss of absorbance at 650 nm
Description: Human spleen membrane DHO-DH catalyzed conversion of dihydroorotate to orotate is accompanied by reduction of coenzyme Q10. Reoxidation of coenzyme Q10 is linked to reduction of dichlorophenolindophenol and is monitored as a loss of absorbance at 650 nm. The rate of loss in absorbance is a direct measurement of the rate of the DHO-DH enzyme catalyzed reaction.
Crude membrane preparations were made using a modification of a published differential centrifugation procedure. All procedures were carried out on ice or at a temperature of 4° C. using pre-cooled buffers and equipment.
The spleen tissue was chopped and then homogenized with a teflon glass homogenizer (about 10 passes at 250 rpm) in 10 volumes of a homogenization buffer (10 mM Tris-HCl containing 0.25M sucrose, 10 μg/ml soybean trypsin inhibitor, 2 μg/ml aprotinin, pepstatin A and leupeptin pH 7.4). The homogenate was centrifuged at ^~ 470 g for 10 minutes and the supernatant was saved. Pellets were resuspended in 4-6 volumes of homogenization buffer using 5 passes of the teflon glass homogenizer (250 rpm) and centrifuged for 10 minutes at ^~ 470 g. The supernatant was combined with that from the first centrifugation step (post nuclear fraction) and the pellets containing nuclei and tissue debris were discarded. The post nuclear supernatant was centrifuged at 125,000 g for 40 minutes. The pellets were resuspended in homogenization buffer (2 ml/g wet tissue) using about 10 passes of the teflon glass homogenizer. Aliquots of the preparation were stored at -80° C.
Membranes (0.33-0.5 mg protein) were incubated with 100 μM coenzyme Q10 in 50 mM Tris-HCl, 0.1% Triton X-100, 1 mM KCN pH 8.0. Following a 90 minute preincubation at 37° C., the reaction was initiated by addition of 500 μM of dihydroorotate and the reduction of DCIP (200 μM) was monitored by loss of absorbance at 650 nm using a 96-well plate reader at 37° C. Drug concentrations increased in half log unit or full log unit intervals with each concentration tested at least in triplicate.

T1 sequence (Q02127 whole entry): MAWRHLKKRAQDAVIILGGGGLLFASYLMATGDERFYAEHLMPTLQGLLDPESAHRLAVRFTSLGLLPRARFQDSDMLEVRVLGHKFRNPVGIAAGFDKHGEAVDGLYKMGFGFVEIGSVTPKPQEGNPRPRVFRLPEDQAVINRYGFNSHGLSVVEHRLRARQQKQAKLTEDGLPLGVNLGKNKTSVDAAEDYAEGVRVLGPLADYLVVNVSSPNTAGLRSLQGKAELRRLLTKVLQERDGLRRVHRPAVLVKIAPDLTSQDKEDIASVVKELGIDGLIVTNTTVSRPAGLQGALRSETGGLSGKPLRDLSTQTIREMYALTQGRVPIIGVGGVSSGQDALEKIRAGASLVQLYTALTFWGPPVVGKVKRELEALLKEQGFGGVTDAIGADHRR

IC50 (read-out: IC50) [nM]	Structure (SMILES)	IC50 [nM]
300	N#CC(C(=O)Nc1ccc([S+]([O-])C(F)(F)F)cc1)=C(O)C1CC1 (stereo not shown) [Example 2, N-(4'-trifluoromethylsulfinyl-phenyl)-2-cyano-3-cyclopropyl-3-hydroxy-prop-2-enamide]	–
1950 to 2100	N#Cc1ccc(NC(=O)C(C#N)C(=O)C2CC2)cc1 (stereo not shown) [A]	–
> 100	C#CC(=O)C(C#N)C(=O)Nc1ccc(C(F)(F)F)cc1 (stereo not shown) [B]	–
–	CC=CC(=O)C(C#N)C(=O)Nc1ccc(C(F)(F)F)cc1 (stereo not shown) [C]	79.4
